How the values were obtained:
HBV [1] = experiment: Treatment of HBV-infected patients with Compound (I), alone or in combination; assay type: in vivo, human
From the text: (§1) In this invention, methods of the entire treatment comprising Compound (I) monotherapy or Compound (I) in combination with other anti-HBV drug(s) for 24-120 weeks were developed.
Furthermore, treatment method of Compound (I) in combination with other anti-HBV drugs results in significant hepatitis B surface antigen (HBsAg) decline or loss. […] However, the method of treatment of this invention with Compound (I) can also induce robust HBV DNA and HBV RNA decline in such patients.

[2] = Safety and tolerability of Compound (I) in chronic hepatitis B patients; assay type: in vivo, human
From the text: as §1

HBV [3] = settings: cited from earlier work
[4] = patients under the treatment methods of the invention

Row | SMILES | hepatitis B surface antigen (HBsAg) decline or loss (HBV [1]; Compound (I) in combination with other anti-HBV drugs) | HBV DNA decline (HBV [1]; [4]) | HBV RNA decline (HBV [1]; [4]) | safety and tolerability [2] | HBsAg decline (HBV [3]; weekly dosing for 4, 8, 12 weeks, virally suppressed patients with chronic hepatitis B) | change in HBsAg after treatment (HBV [3]; weekly dosing for 12 weeks in combination with tenofovir disoproxil fumarate, viremic CHB patients not on oral antiviral treatment)
1 | CC[C@H](OC(C)=O)[C@@H]1C[C@@H](O)[C@H](n2c(=O)sc3cnc(N)nc32)O1 [Compound (I), (1S)-1-[(2S,4R,5R)-5-(5-amino-2-oxo-thiazolo[4,5-d]pyrimidin-3-yl)-4-hydroxy-tetrahydrofuran-2-yl]propyl] acetate] | significant | robust | robust | safe and well tolerated |  | 
2 | CCCCOc1nc(N)c2c(n1)N(Cc1cccc(CN3CCCC3)c1)CC(=O)N2 [Vesatolimod] |  |  |  |  | did not show HBsAg decline | did not demonstrate any meaningful change in HBsAg

Source: US20230044958A1, “METHOD OF TREATING VIRUS INFECTION USING A TLR7 AGONIST” (Hoffmann-La Roche Inc., priority 2019, published 2023)
